# Test: Hydrophilicity test (dispersion)
# Format: physicochemical
structure (smiles),measurement,value
CC(=O)O[C@H]1C(=O)[C@@]2(C)[C@H]([C@H](OC(=O)c3ccccc3)[C@]3(O)C[C@H](OC(=O)[C@H](O)[C@@H](NC(=O)c4ccccc4)c4ccccc4)C(C)=C1C3(C)C)[C@]1(OC(C)=O)CO[C@@H]1C[C@@H]2O [paclitaxel],dispersion (hydrophilicity),0.4 µg/mL

# From patent US8846644B2, “Phosphate-containing nanoparticle delivery vehicle” (priority 2009, dated 2014)
